Laboratory results reported in paper PMC9769880, “Diverse Sensory Repertoire of Paralogous Chemoreceptors Tlp2, Tlp3, and Tlp4 in Campylobacter jejuni” (Microbiology Spectrum, 2022).
“Also recorded” adds a separate entry of the source. Read-outs that look alike come from different tables or passages of the source.

Legend:
Tlp2 [1] = target: T1, Tlp2 (Campylobacter jejuni, UniProt Q0PBZ3); assay: biochemical; type: binding
Experimental: (§1) His-tagged proteins (Tlp2, -3, and -4) were prepared as previously described ([11]) DNA segments encoding the periplasmic sensory domains (33 to 286 amino acids) of Tlp2 and (38 to 297 amino acids) of Tlp4 were amplified (see Table S7), ligated into pGEM-T Easy (Promega) and subcloned into pET-19b (Novagen) (see Table S6). Recombinant proteins were expressed in E. coli BL21(DE3) using 1 mM IPTG (isopropyl-β-D-thiogalactopyranoside) and purified using His-select-nickel chromatography as described previously ([8], [11]). The purity of the proteins was confirmed by SDS-PAGE and Western blot analysis with anti-His antibodies (Bio-Rad). Protein concentrations were determined using a NanoDrop spectrophotometer (Thermo Fisher).
(§2) Surface plasmon resonance (SPR) experiments were performed as described previously ([10], [11]) with the following modifications. Briefly, purified proteins were diluted to 0.15 μM in sodium acetate (pH 4.0) and immobilized onto an active flow cell of a CM5 sensor chip with a flow rate of 5 μL/min for 7 min of contact time using a standard amine coupling protocol. Immobilized protein levels for all three proteins ranged from 6028.3 to 9779.3 response units (RU) providing a minimum expected response maximum (RMax) between 20 and 50 RU for the small molecules tested. […] All ligands were prepared in PBS (pH 7.2) and serially diluted from 0.2 to 0.0125 mM. A 10-min dissociation period was allocated after the introduction of each analyte. SPR experiments were performed in single-cycle kinetics mode using the BIAcore S200 biosensor system (Cytiva) at 25°C in PBS (pH 7.2) at a flow rate of 30 μL/min. The equilibrium dissociation constant (KD) for each analyte was determined using BIAcore S200 Evaluation software with a report point 4 s after the injection stop to account for the bulk transfer of the small molecule against a large amount of immobilized protein (as shown in Fig. S5).

Tlp4 [2] = target: T2, Tlp4 (Campylobacter jejuni, UniProt Q0PBP3); assay: biochemical; type: binding
Experimental: as §1, §2

Tlp3 [3] = target: T3, Tlp3 (Campylobacter jejuni, UniProt Q0P864); assay: biochemical; type: binding
Experimental: as §1, with “The purity of the proteins was confirmed by SDS-PAGE and Western blot analysis with anti-His antibodies (Bio-Rad).” left out
Surface plasmon resonance (SPR) experiments were performed as described previously ([10], [11]) with the following modifications. […] All ligands were prepared in PBS (pH 7.2) and serially diluted from 0.2 to 0.0125 mM. A 10-min dissociation period was allocated after the introduction of each analyte. SPR experiments were performed in single-cycle kinetics mode using the BIAcore S200 biosensor system (Cytiva) at 25°C in PBS (pH 7.2) at a flow rate of 30 μL/min. The equilibrium dissociation constant (KD) for each analyte was determined using BIAcore S200 Evaluation software with a report point 4 s after the injection stop to account for the bulk transfer of the small molecule against a large amount of immobilized protein (as shown in Fig. S5).

Tlp2 [4] = target: T1, Tlp2; type: binding
Experimental: (§3) Glycan (>400 monosaccharides or complex glycans) and small molecule arrays containing amino acids and salts were performed as described previously by Day et al. ([67]). Briefly, 1 μg of purified recombinant protein was complexed with anti-His antibody (Cell Signaling Technology) and rabbit anti-mouse/goat anti-rabbit Alexa 555-IgG (Thermo Scientific) at a molar ratio of 1:0.5:0.25 and then incubated on the array for […] in phosphate-buffered saline (PBS). The array slides were scanned at 488/520 nm and analyzed using InnoScan 1100 with MAPIX software. All arrays were performed in triplicate with a total of 12 data points for each glycan tested; the complete data set and MIRAGE (i.e., minimum information regarding a glycomics experiment) results are shown in Tables S3 and S8.
(§4) Table S8 - Supplementary glycan microarray document based on M IRAGE guidelines. D O I:
(§5) Classification Guidelines
(§6) 1. Sample: Glycan Binding Sample
(§7) Origin: Helicobacter pylori SS1; produced as a recombinant His - tagged protein in E.
(§8) The preparation of Tlp2,3, and 4 is explained in the Materials and Methods section:
(§9) Expression and purification of the periplasmic domain of Tlp2,3, and 4.
(§10) Sample Sample is a His Tagged protein containing only the periplasmic receptor domain of the modifications full length Tlp2,3, and 4transmembrane protein.
(§11) Please see Materials and Methods: Tlps 2/3/4 bind to a range of ligands, including […]
(§12) Proteins were complexed with mouse anti- his antibody, with secondary and tertiary AlexaFluor555 antibodies (rabbit anti-mouse, goat anti-rabbit) at a molar ratio of 4:2:1.
(§13) The protein/antibody complex was incubated on ice for 10 mins prior to placing on the Assay protocol array. Arrays were performed with 1 µg of complexed protein incubated on the array for 20 min. Arrays were then washed 3 times in Array PBS (PBS + 2mM MgCl2 + 2mM CaCl2) then dried by centrifugation for 3 min at 300 x g . Scanning was performed us ing an Innopsys InnoScan 1100AL and analyzed using Mapix (Innopsys). Yes/no binding was determined by six positive replicate spots in three replicate experiments. Positive […]
(§14) Glycan Glycans in this study are listed in Table S2 and is a published library in doi:
(§15) Glycans were prepared in one of two ways for printing:
(§16) Glycan 1. Glycans (with IDs in number/letter format; e.g. 1A, 4C, 7K) were sourced modifications commercially from Dextra Laboratories, Elicityl and Carbosythn and were made into glycoamines using the protocol published in Day et al 2009 (doi:
(§17) Glycan arrays: We only use glycan arrays as a yes/no binding tool. Due to this we look only at binding that is unambiguously above background vs lack of binding above background. Average background + 3x standard deviation of the background of 20 sets of 4 spots of DMF:DMSO only spots is applied to determine if binding observed is […]
(§18) Only spots with values equal to or greater than this value were considered as binding from data of any tested slide. These values are slide […]
(§19) Data Small molecule arrays: We only use amino acid arrays as a yes/no binding tool. Due interpretation to this we look only at binding that is unambiguously above background vs lack of binding above background. Average background + 3x standard deviation of the background of 6 spots of PBS + 2% glycerol only spots is applied to determine if […]
(§20) Only spots with values equal to or greater than this value were considered as binding from data of any tested slide. These values are slide dependent. […]

Tlp4 [5] = target: T2, Tlp4; type: binding
Experimental: as §3, §4, §5, §6, §7, §8, §9, §10, §11, §12, §13, §14, §15, §16, §17, §18, §19, §20

Tlp3 [6] = target: T3, Tlp3; assay: Glycan/small molecule arrays with Tlp3; details: yes/no binding
Experimental: as §3, §4, §5, §6, §7, §8, §9, §10, §11, §12, §13, §14, §15, §16, §17, §18, §19, §20

Tlp2 [7] = type: cell-based, C. jejuni 11168-O; details: nutrient-depleted chemotaxis assay
Experimental: (§21) The biological relevance of the binding specificities of the Tlp2,3,4 cluster was assessed by examining chemotactic responses of C. jejuni 11168-O tlp2, tlp3, and tlp4 wild-type (WT) and mutant strains using a nutrient-depleted chemotaxis assay. All ligands, with the exception of lysine and cysteine, interacted with Tlp2 and Tlp4 as attractants (Table 1), showing an ~1- to ~2-log decrease (P < 0.05) in migration toward the ligand compared to the WT strain.
(§22) Chemotaxis assays—the nutrient-depleted chemotaxis assay and the modified hard agar plug assay (tHAP)—were performed as previously described ([11], [34]). The chemotactic responses of all isogenic strains were compared to that of the C. jejuni 11168-O wild-type strain to distinguish between chemoattractants and chemorepellents. For the nutrient-depleted chemotaxis and modified hard agar plug (tHAP) assays, all differences were calculated as changes on a log10 scale. Controls were provided by using nonmotile (C. jejuni 81116 flaAB) and nonchemotactic (C. jejuni NCTC 11168 cheY) mutants ([69]) and mucin as negative and positive controls ([10]).

Tlp3 [8] = type: cell-based, C. jejuni 11168-O; details: chemotaxis of mutant compared to WT strain
Experimental: as §21, §22

Tlp3^LBD K149A = Tlp3^LBD K149A (Campylobacter jejuni, UniProt Q0P864, K149A); assay: biochemical
Tlp3^LBD W151A = Tlp3^LBD W151A (Campylobacter jejuni, UniProt Q0P864, W151A); assay: biochemical
Tlp3^LBD D169A = Tlp3^LBD D169A (Campylobacter jejuni, UniProt Q0P864, D169A); assay: biochemical
Tlp3^LBD D170A = Tlp3^LBD D170A (Campylobacter jejuni, UniProt Q0P864); assay: biochemical
Tlp3^LBD D196A = Tlp3^LBD D196A (Campylobacter jejuni, UniProt Q0P864, D196A); assay: biochemical
[9] = SPR KD, mean ± SD, NB = no binding, read-out: Tlp2 Affinity
[10] = SPR KD, mean ± SD, NB = no binding, read-out: Tlp4 Affinity
[11] = SPR KD, mean ± SD, NB = no binding, read-out: Tlp3 Affinity

T1 sequence (Q0PBZ3 entry or part of it): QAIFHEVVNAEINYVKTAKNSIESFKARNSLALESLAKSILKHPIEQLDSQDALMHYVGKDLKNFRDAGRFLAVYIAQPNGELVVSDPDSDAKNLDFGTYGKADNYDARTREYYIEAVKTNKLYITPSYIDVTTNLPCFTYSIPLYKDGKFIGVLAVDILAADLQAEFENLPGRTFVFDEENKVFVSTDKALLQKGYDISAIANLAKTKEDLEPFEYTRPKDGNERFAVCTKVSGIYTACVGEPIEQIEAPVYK
T2 sequence (Q0PBP3 entry or part of it): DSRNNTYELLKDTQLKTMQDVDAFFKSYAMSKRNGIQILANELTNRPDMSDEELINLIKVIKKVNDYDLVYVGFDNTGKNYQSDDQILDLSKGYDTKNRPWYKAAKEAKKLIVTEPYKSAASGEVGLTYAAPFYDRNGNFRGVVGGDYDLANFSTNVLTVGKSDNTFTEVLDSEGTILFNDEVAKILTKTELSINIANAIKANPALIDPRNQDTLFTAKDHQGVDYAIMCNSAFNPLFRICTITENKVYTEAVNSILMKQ
T3 sequence (Q0P864 entry or part of it): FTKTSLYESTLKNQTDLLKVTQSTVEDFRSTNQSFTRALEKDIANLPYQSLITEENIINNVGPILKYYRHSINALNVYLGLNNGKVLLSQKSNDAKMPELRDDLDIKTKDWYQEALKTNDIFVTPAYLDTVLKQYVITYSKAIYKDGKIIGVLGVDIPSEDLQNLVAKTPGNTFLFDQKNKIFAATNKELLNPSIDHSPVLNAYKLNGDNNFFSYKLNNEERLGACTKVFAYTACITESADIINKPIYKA
Sequence of Tlp3^LBD D170A (Q0P864 41-290 T170A): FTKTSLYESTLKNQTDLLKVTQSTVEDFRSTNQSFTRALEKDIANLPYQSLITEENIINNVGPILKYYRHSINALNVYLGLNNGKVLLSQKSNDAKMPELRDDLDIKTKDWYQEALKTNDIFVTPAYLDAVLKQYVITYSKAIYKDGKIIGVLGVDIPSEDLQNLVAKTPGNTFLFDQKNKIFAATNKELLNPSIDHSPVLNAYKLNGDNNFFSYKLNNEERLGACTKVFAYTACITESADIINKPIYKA
Sequence of Tlp3^LBD W151A (Q0P864 41-290 W151A): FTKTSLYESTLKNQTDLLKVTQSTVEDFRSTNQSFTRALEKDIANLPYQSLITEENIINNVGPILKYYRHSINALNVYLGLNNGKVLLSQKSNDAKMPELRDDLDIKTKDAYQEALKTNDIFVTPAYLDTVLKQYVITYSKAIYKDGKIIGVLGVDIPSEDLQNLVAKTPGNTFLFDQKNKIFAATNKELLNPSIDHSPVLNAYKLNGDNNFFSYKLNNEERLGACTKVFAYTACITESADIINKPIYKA
Sequence of Tlp3^LBD K149A (Q0P864 41-290 K149A): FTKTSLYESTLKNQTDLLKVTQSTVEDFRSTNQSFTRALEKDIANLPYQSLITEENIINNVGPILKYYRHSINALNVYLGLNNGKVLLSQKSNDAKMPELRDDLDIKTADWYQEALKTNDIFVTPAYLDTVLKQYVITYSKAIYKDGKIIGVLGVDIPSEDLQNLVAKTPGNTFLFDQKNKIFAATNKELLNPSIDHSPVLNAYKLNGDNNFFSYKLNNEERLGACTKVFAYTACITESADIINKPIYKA
Sequence of Tlp3^LBD D196A (Q0P864 41-290 D196A): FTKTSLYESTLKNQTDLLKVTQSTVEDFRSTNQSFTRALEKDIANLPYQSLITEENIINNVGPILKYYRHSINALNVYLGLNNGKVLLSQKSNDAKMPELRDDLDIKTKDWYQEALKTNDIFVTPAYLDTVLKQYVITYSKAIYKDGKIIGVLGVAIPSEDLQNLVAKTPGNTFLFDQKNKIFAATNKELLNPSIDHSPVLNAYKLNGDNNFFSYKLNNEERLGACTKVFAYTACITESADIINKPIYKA
Sequence of Tlp3^LBD D169A (Q0P864 41-290 D169A): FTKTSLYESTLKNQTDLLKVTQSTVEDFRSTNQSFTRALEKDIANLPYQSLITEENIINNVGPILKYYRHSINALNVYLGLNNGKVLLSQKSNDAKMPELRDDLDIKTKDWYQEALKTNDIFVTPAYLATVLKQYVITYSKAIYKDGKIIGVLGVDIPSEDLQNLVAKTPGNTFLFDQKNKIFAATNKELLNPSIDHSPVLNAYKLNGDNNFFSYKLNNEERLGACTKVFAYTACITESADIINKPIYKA

Row | SMILES | Kd (Tlp2 [1]; [9]) | Kd (Tlp4 [2]; [10]) | Kd (Tlp3 [3]; [11]) | binding to Tlp2 on glycan/small molecule array (Tlp2 [4]; yes/no binding) | binding to Tlp4 on glycan/small molecule array (Tlp4 [5]; yes/no binding) | Kd (Tlp2 [1]) | Kd (Tlp4 [2]) | binding to Tlp2 on glycan/small molecule array (Tlp2 [4]) | binding to Tlp4 on glycan/small molecule array (Tlp4 [5]) | binding to Tlp3 on glycan/small molecule array (Tlp3 [6]) | other results
1 | NC(=O)C[C@H](N)C(=O)O [Asparagine] | 12.8 ± 5.1 µM | 45.1 ± 6.1 µM | > 200 µM | bound | bound |  |  |  |  |  | 
2 | N[C@@H](CC(=O)O)C(=O)O [Aspartate] |  |  |  |  |  | 95.4 ± 0.9 µM | 75.3 ± 8.1 µM | bound | bound | bind specifically | 
3 | N[C@@H](CS)C(=O)O [Cysteine] | 10.8 ± 3.3 µM | 5.7 ± 5.8 µM | > 200 µM | bound | bound |  |  |  |  |  | chemotactic response via Tlp2 (Tlp2 [7]): did not generate any significant chemotactic response; also recorded: did not affect the chemotactic movement
4 | O=C[C@H](O)[C@@H](O)[C@@H](O)[C@H](O)CO [Galactose] |  |  |  |  |  | 17.2 ± 1.3 µM | 18.3 ± 2.1 µM | interacted | interacted | interacted | 
5 | N[C@H]1C(O)O[C@H](CO)[C@@H](O)[C@@H]1O (stereo partly drawn) [Glucosamine] | > 200 µM | > 200 µM |  |  |  |  |  |  |  |  | Kd (Tlp3 [3]): 7.1 ± 2.9 µM; Tlp3 CR (chemoresponse) (Tlp3 [8]): R; Kd (Tlp3^LBD K149A): 24.3 ± 2.1 µM; Kd (Tlp3^LBD W151A): 34.3 ± 12.7 µM; Kd (Tlp3^LBD D169A): 38.4 ± 6.45 µM; Kd (Tlp3^LBD D170A): 39.7 ± 8.6 µM; Kd (Tlp3^LBD D196A): 45.5 ± 7.3 µM
